# Test results as given in patent EP0531958A1, “6-Aminoquinolones, their synthesis and their use as antibacterial agents” (MEDIOLANUM FARMACEUTICI S.P.A., priority 1991, dated 1993).
# Read-outs that look alike come from different tables or passages of the source.
# Assays:
# Type in all cases: cell-based
# [1] = system: Enterobacter cloacae OMNF 1153; experiment: MIC test, agar dilution with Steers multiwell inoculator; details: OMNF1153, TSA dishes, 24 h at 35°C, read-out: Minimum Inhibiting Concentration
# Description: (§1) As to the antibacterial activity, there was determined the Least (Minimum) Inhibiting Concentration (MIC), by working according to the following operative conditions.
# (§2) There were used suspensions of test germs (5 gram-positive and 15 gram-negative) having a known titre, kept freezed at -80°C and diluted, at the time of use, in peptonized water up to a concentration of 1-2.10⁷ cfu/ml.
# (§3) A few mg of the products, according to the invention were weighed sufficient for preparing parent solutions in DMSO + NaOH (1N) containing 2560 µg/ml (64µg/ml/dish). From the thus prepared parent solutions there were prepared 12 serial dilutions (1:2) down to the concentration of 1.25 µg/ml.
# (§4) 0.5 ml of the different dilutions of each product were distributed on dishes containing 19.5 ml of agarized medium (TSA), maintained in a fluid state at the temperature of 50°C. After slight stirring, the dishes were made to solidify and dry under hood (laminar flow).
# (§5) The MIC tests (Least or "Minimum" Inhibiting Concentration) were performed by using a Steers multiwell inoculator having 36 wells, each containing 200 µl of bacterial suspension.
# (§6) After inoculation, the dishes were placed into a thermostat and checked after 24 h of incubation at 35°C.
# (§7) The MIC is defined as the lowermost product concentration (µg/ml) inhibiting the visible growth of the microorganisms.
# [2] = system: Enterobacter cloacae OMNF 1174; experiment: as above; details: OMNF1174, TSA dishes, 24 h at 35°C, read-out: Minimum Inhibiting Concentration
# Description: as §1, §2, §3, §4, §5, §6, §7
# [3] = system: Pseudomonas aeruginosa CNUR 2; experiment: as above; details: CNUR2, TSA dishes, 24 h at 35°C, read-out: Minimum Inhibiting Concentration
# Description: as §1, §2, §3, §4, §5, §6, §7
# Proteus vulgaris CNUR 6 = experiment: as above; details: CNUR6, TSA dishes, 24 h at 35°C, read-out: Minimum Inhibiting Concentration
# Description: as §1, §2, §3, §4, §5, §6, §7
# Shighella enteritidis = experiment: as above; details: TSA dishes, 24 h at 35°C, read-out: Minimum Inhibiting Concentration
# Description: as §1, §2, §3, §4, §5, §6, §7
# Escherichia coli CNUR 8 = experiment: as above; details: CNUR8, TSA dishes, 24 h at 35°C, read-out: Minimum Inhibiting Concentration
# Description: as §1, §2, §3, §4, §5, §6, §7
# [4] = system: Staphylococcus aureus MPR 5; experiment: as above; details: MPR5, TSA dishes, 24 h at 35°C, read-out: Minimum Inhibiting Concentration
# Description: as §1, §2, §3, §4, §5, §6, §7
# [5] = system: Klebsiella pneumoniae ATCC 10031; experiment: as above; details: ATCC10031, TSA dishes, 24 h at 35°C, read-out: Minimum Inhibiting Concentration
# Description: as §1, §2, §3, §4, §5, §6, §7
# [6] = system: Escherichia coli ATCC 8739; experiment: as above; details: ATCC8739, TSA dishes, 24 h at 35°C, read-out: Minimum Inhibiting Concentration
# Description: as §1, §2, §3, §4, §5, §6, §7
# [7] = system: Pseudomonas aeruginosa ATCC 9027; experiment: as above; details: ATCC9027, TSA dishes, 24 h at 35°C, read-out: Minimum Inhibiting Concentration
# Description: as §1, §2, §3, §4, §5, §6, §7
# [8] = system: Staphylococcus aureus ATCC 6538; experiment: as above; details: ATCC6538, TSA dishes, 24 h at 35°C, read-out: Minimum Inhibiting Concentration
# Description: as §1, §2, §3, §4, §5, §6, §7
# [9] = system: Acinebacter calcoloaceticus OSMPV 1130; experiment: as above; details: TSA dishes, 24 h at 35°C, read-out: Minimum Inhibiting Concentration
# Description: as §1, §2, §3, §4, §5, §6, §7
# Escherichia coli 120 = experiment: as above; details: TSA dishes, 24 h at 35°C, read-out: Minimum Inhibiting Concentration
# Description: as §1, §2, §3, §4, §5, §6, §7
# [10] = system: Staphylococcus epidermidis CPHL A2; experiment: as above; details: CPHLA2, TSA dishes, 24 h at 35°C, read-out: Minimum Inhibiting Concentration
# Description: as §1, §2, §3, §4, §5, §6, §7
# [11] = system: Staphylococcus epidermidis HCF Berset C.; experiment: as above; details: TSA dishes, 24 h at 35°C, read-out: Minimum Inhibiting Concentration
# Description: as §1, §2, §3, §4, §5, §6, §7
# Escherichia coli ISF 432 = experiment: as above; details: ISF432, TSA dishes, 24 h at 35°C, read-out: Minimum Inhibiting Concentration
# Description: as §1, §2, §3, §4, §5, §6, §7
# Escherichia coli CNUR 1 = experiment: as above; details: CNUR1, TSA dishes, 24 h at 35°C, read-out: Minimum Inhibiting Concentration
# Description: as §1, §2, §3, §4, §5, §6, §7
# [12] = system: Pseudomonas aeruginosa CNUR 4; experiment: as above; details: CNUR4, TSA dishes, 24 h at 35°C, read-out: Minimum Inhibiting Concentration
# Description: as §1, §2, §3, §4, §5, §6, §7
# [13] = system: Providencia stuardii CNUR 5; experiment: as above; details: CNUR5, TSA dishes, 24 h at 35°C, read-out: Minimum Inhibiting Concentration
# Description: as §1, §2, §3, §4, §5, §6, §7
# [14] = system: Streptococcus facealis LEP Br.; experiment: as above; details: TSA dishes, 24 h at 35°C, read-out: Minimum Inhibiting Concentration
# Description: as §1, §2, §3, §4, §5, §6, §7
# Gram - = experiment: MIC test, average over the 15 gram-negative test germs; details: 24 h
# Description: as §1, §2, §3, §4, §5, §6, §7
# Gram + = experiment: MIC test, average over the 5 gram-positive test germs; details: 24 h
# Description: as §1, §2, §3, §4, §5, §6, §7
# [15] = geometrical average of the MIC over the 15 Gram - strains, read-out: Geometrical Average
# [16] = mean log of the MIC over the 15 Gram - strains, read-out: Log (converted)
# [17] = geometrical average of the MIC over the 5 Gram + strains, read-out: Geometrical Average
structure (smiles),measurement,setting,value
Nc1cc2c(=O)c(C(=O)O)cn(C3CC3)c2cc1N1CCCC1 [Compound 10],MIC,[1],16 µg/mL
same,MIC,[2],8 µg/mL
same,MIC,[3],128 µg/mL
same,MIC,Proteus vulgaris CNUR 6,128 µg/mL
same,MIC,Shighella enteritidis,16 µg/mL
same,MIC,Escherichia coli CNUR 8,8 µg/mL
same,MIC,[4],128 µg/mL
same,MIC,[5],0.25 µg/mL
same,MIC,[6],0.25 µg/mL
same,MIC,[7],128 µg/mL
same,MIC,[8],128 µg/mL
same,MIC,[9],128 µg/mL
same,MIC,Escherichia coli 120,4 µg/mL
same,MIC,[10],128 µg/mL
same,MIC,[11],128 µg/mL
same,MIC,Escherichia coli ISF 432,0.25 µg/mL
same,MIC,Escherichia coli CNUR 1,16 µg/mL
same,MIC,[12],128 µg/mL
same,MIC,[13],128 µg/mL
same,MIC,[14],128 µg/mL
same,MIC,Gram -; [15],13.3 µg/mL
same,MIC,Gram -; [16],13.3 µg/mL
same,MIC,Gram +; read-out: Log (converted),128 µg/mL
Nc1cc2c(=O)c(C(=O)O)cn(C3CC3)c2cc1N1CCNCC1 [Compound 9],MIC,[1],0.5 µg/mL
same,MIC,[2],0.25 µg/mL
same,MIC,[3],8 µg/mL
same,MIC,Proteus vulgaris CNUR 6,32 µg/mL
same,MIC,Shighella enteritidis,0.5 µg/mL
same,MIC,Escherichia coli CNUR 8,0.25 µg/mL
same,MIC,[4],64 µg/mL
same,MIC,[5],0.25 µg/mL
same,MIC,[6],0.25 µg/mL
same,MIC,[7],2 µg/mL
same,MIC,[8],64 µg/mL
same,MIC,[9],16 µg/mL
same,MIC,Escherichia coli 120,0.25 µg/mL
same,MIC,[10],16 µg/mL
same,MIC,[11],16 µg/mL
same,MIC,Escherichia coli ISF 432,0.03 µg/mL
same,MIC,Escherichia coli CNUR 1,0.25 µg/mL
same,MIC,[12],64 µg/mL
same,MIC,[13],32 µg/mL
same,MIC,[14],128 µg/mL
same,MIC,Gram -; [15],1.26 µg/mL
same,MIC,Gram -; [16],1.26 µg/mL
same,MIC,Gram +; [17],42.2 µg/mL
same,MIC,Gram +; read-out: Log (converted),42.2 µg/mL
Nc1cc2c(=O)c(C(=O)O)cn(C3CC3)c2cc1N1CCSCC1 [Compound 15],MIC,[1],0.5 µg/mL
same,MIC,[2],0.5 µg/mL
same,MIC,[3],16 µg/mL
same,MIC,Proteus vulgaris CNUR 6,128 µg/mL
same,MIC,Shighella enteritidis,0.5 µg/mL
same,MIC,Escherichia coli CNUR 8,0.12 µg/mL
same,MIC,[4],0.5 µg/mL
same,MIC,[5],0.03 µg/mL
same,MIC,[6],0.03 µg/mL
same,MIC,[7],2 µg/mL
same,MIC,[8],0.5 µg/mL
same,MIC,[9],1 µg/mL
same,MIC,Escherichia coli 120,0.12 µg/mL
same,MIC,[10],1 µg/mL
same,MIC,[11],2 µg/mL
same,MIC,Escherichia coli ISF 432,0.03 µg/mL
same,MIC,Escherichia coli CNUR 1,0.5 µg/mL
same,MIC,[12],128 µg/mL
same,MIC,[13],1 µg/mL
same,MIC,[14],8 µg/mL
same,MIC,Gram -; [15],0.748 µg/mL
same,MIC,Gram -; [16],0.748 µg/mL
same,MIC,Gram +; [17],1.32 µg/mL
same,MIC,Gram +; read-out: Log (converted),1.32 µg/mL
"CN1CCN(c2nc3c(cc2N)c(=O)c(C(=O)O)cn3C2CC2)CC1 [Compound 40, chlorhydrate of the 6-amino-1-cyclopropyl-7-(4-methyl-1-piperazinyl)-1,4-dihydro-4-oxo-1,8-naphthyridine carboxylic acid]",MIC,[1],0.12 µg/mL
same,MIC,[2],0.12 µg/mL
same,MIC,[3],4 µg/mL
same,MIC,Proteus vulgaris CNUR 6,64 µg/mL
same,MIC,Shighella enteritidis,0.12 µg/mL
same,MIC,Escherichia coli CNUR 8,0.06 µg/mL
same,MIC,[4],4 µg/mL
same,MIC,[5],0.03 µg/mL
same,MIC,[6],0.12 µg/mL
same,MIC,[7],2 µg/mL
same,MIC,[8],4 µg/mL
same,MIC,[9],2 µg/mL
same,MIC,Escherichia coli 120,0.06 µg/mL
same,MIC,[10],4 µg/mL
same,MIC,[11],4 µg/mL
same,MIC,Escherichia coli ISF 432,0.03 µg/mL
same,MIC,Escherichia coli CNUR 1,0.12 µg/mL
same,MIC,[12],64 µg/mL
same,MIC,[13],2 µg/mL
same,MIC,[14],32 µg/mL
same,MIC,Gram -; [15],0.466 µg/mL
same,MIC,Gram -; [16],0.466 µg/mL
same,MIC,Gram +; [17],6.06 µg/mL
same,MIC,Gram +; read-out: Log (converted),6.07 µg/mL
